One data set addresses T1, PD1:PDL1 interaction (Homo sapiens, UniProt Q15116).
T1 construct: purchased BPS Bioscience 72005
The data set is described as follows: PD1/PDL1 immunoblocking ELISA (BPS Bioscience kit cat # 72005). The data set is classed as binding. Conditions: for LE (ligand efficiency): LE = -RTln(EC50)/HA, HA = non-hydrogen atoms omitting the strap (RWV•••VWE). The protocol:
Original loops with Phe/Trp and their Gly-derived analogs. Experimental EC50 values from inhibitory dose–response curves. Error bars indicate the mean ± SD, (n = 3). […]
SDS -Pages, buffers, and stain were purchased from Fisher
8. Immunoblocking ELISA Assay
Peptide inhibitor stock solutions were prepared in the concentration range of approximately 1-5 mM in DMSO. […]
plate was then washed and blocked with blocking buffer for 1 h at room temperature. Inhibitor solutions (ranging from 0.01 to 100 μM) and a blank solution (DMSO/PBS buffer) were added to designated wells. To initiate the […]
inhibitor solutions. After a 2 h incubation at room temperature, the plate was washed and blocked again for 10 min. Streptavidin-HRP (diluted at 1 : 1000) was added and incubated for 1 h at room temperature with gentle shaking. The plate was washed and blocked once more for 10 min. ELISA ECL substrate was added, and the resulting chemoluminescence was immediately measured in a luminometer (FLUOstar OPTIMA, BMG Labtech).
The luminescence value of the blank was subtracted from all readings according to the manufacturer's
For orientation: In an ELISA, binding on a coated surface is turned into a signal by an enzyme label.

Data set [1] can be described thus: Variable-temperature CD melting curves (CD-melts at 228±2 nm and 202±2 nm), individual and global two-state fits. The data set is classed as physicochemical. Conditions: for ΔGF0: CD-melt at 228±2 nm, individual two-state Gibbs-Helmholtz fit (Origin 9.0), phosphate buffer 15 mM pH 6.5 ± MeOH; for ΔGF0 / DHm (fitted value, results from OriginPro) / Tm (fitted value, results from OriginPro): 0-95 °C; for Tm / Hairpin %-fold 291K / Hairpin %-fold 310K: Table S5, individual fit; for Tm: 228±2 nm; for -TΔSF0 / ΔCpF0 / ΔHF0 / ΔHm: as E16; for VT-CD %-fold: folded fraction (χF) at 25 °C from CD-melts, (R) regular / (B) bulged fold; for VT-CD %-fold / VT-CD Tm (°C): phosphate buffer 15 mM pH 6.5, up to 20% MeOH; for VT-CD Tm (°C): melting temperature from CD-melts; for DHm (fitted value, results from OriginPro) / Tm (fitted value, results from OriginPro): two-state fit of the CD melt θ - θcoil(95) vs T, peptide c 3.2e-5 to 5e-5 M. The protocol:
Recently, our laboratory brought forward a novel synthetic technology for the synthesis of acyclic β-hairpins with long loops. […] To compare hairpins’ stability, both regular (R) and bulged (B) scaffolds were crafted around a flexible 10-residue model loop (G4K2G4) and analyzed by CD (circular dichroism) spectroscopy (Fig. 2(A), see ESI, ^† Table S5). The […] structure of these model scaffolds 1avs.2a in solution were recorded in the far-UV CD spectra. […] The CD-exciton intensity was therefore used as a global probe to determine the %-folding of ADAPTins and to obtain melting curves corresponding to the hairpin fraying mechanism upon a gradual increase of temperature (0 to 95 °C).[68] […] In addition, NMR (nuclear magnetic resonance) chemical shifts were measured to determine variations in backbone […] structures (Fig. 2(B)). Secondary chemical shift deviations (CSDs) were calculated against random coil values[69] for both ADAPTin scaffolds 1vs.2 to verify that the hairpins were folded and if any variation of conformational rigidity exist within the loops. […]
Mass Spectrometer coupled to a Vanquish™ Neo UHPLC System (Thermo Scientific™). Peptide solutions for circular dichroism (CD) were prepared within a concentration range of 15-120 µM in a phosphate buffer (15 mM, […]
measured accurately using a JASCO V-670 spectrophotometer relied on the combined molar absorptivity of Trp (ε280 = 5580 M-1 .cm-1 per Trp) and Tyr (ε280 = 1280 M-1 .cm-1 per Tyr) to determine each sample's concentration.
CD spectra were recorded using a JASCO J-810 Spectropolarimeter equipped with a temperature controller module JASCO PFD-425S. Raw CD melting curves were processed in SpectraGryph, and fitting was performed in OriginPro 9.0 (Originlab Corporation, U.S.A.). NMR samples were prepared by reconstituting freeze -dried peptides (~ 1-5 mg) in mixture of water and DMSO -d6 (90:10 v/v) using 2,2-dimethyl-2-silapentane-5-sulfonate (DSS) as internal standard for chemical shifts (0 ppm), and spectra were recorded at 291 K (18 °C) unless otherwise stated. Chemical shifts ( δ) are reported in ppm. Samples for NMR experiments were prepared in a range of 3-10 mM of peptide in solution unless otherwise noted.

Setting [2] is: variable-temperature CD melt 0-95 °C, θ - θcoil(95) vs T, l = 0.1 cm, individual two-state fit.

The structures appear in SMILES notation. Bridge positions count the residues as written; N and C are the ends. Peptide text beside a SMILES is read from it.

T1 sequence (Q15116 25-167 limits assumed): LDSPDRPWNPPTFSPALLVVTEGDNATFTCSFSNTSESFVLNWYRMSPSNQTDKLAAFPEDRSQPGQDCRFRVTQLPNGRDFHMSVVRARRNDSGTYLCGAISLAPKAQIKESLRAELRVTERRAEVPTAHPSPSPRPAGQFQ

In the case of `CC[C@H](C)[C@H](NC(=O)[C@H](Cc1ccc(O)cc1)NC(=O)CNC(=O)[C@H](Cc1ccc(O)cc1)NC(=O)[C@H](CC(N)=O)NC(=O)CNC(=O)[C@H](Cc1ccc(O)cc1)NC(=O)[C@H](C)NC(=O)[C@H](CCCNC(=N)N)NC(=O)[C@H](C)NC(=O)[C@@H](NC(=O)[C@H](Cc1c[nH]c2ccccc12)NC(=O)[C@@H](N)CCCNC(=N)N)C(C)C)C(=O)N[C@@H](CC(=O)O)C(=O)N[C@H](C(=O)N[C@@H](Cc1c[nH]c2ccccc12)C(=O)N[C@@H](Cc1c[nH]cn1)C(=O)N[C@@H](Cc1c[nH]c2ccccc12)C(=O)N[C@@H](CCC(=O)O)C(=O)O)C(C)C` [2r] (H-RWVARAYGNYGYIDVWHWE-OH), the “LE (ligand efficiency)” value on PD1:PDL1 interaction stood at 0.08. Moreover, in data set [1], the ΔGF0 is -1.15 ± 0.01 kcal/mol, the Tm is given as 67.6 oC, the “Hairpin %-fold 310K” value is recorded as 80 ± 1% and the “-TΔSF0” value turned out to be 7.13 ± 0.3 kcal/mol. Moreover, in data set [1], the ΔCpF0 was -44 ± 9 cal.deg-1.mol-1, the ΔHF0 was -8.29 ± 0.3 kcal/mol, the ΔHm is -10.2 ± 0.2 kcal/mol and the VT-CD %-fold is 91% (B). Moreover, the “Hairpin %-fold 291K” value in data set [1] (291 K) was 91 ± 1%. Besides, the “%fold 291K” value in data set [1] (fraction folded at 291 K from the two-state fit of the CD melt, c 6.2e-5 M, l 0.1 cm) worked out at 91%. In addition, in data set [1] (two-state fit of the CD melt (θ - θcoil(95) vs T, 0-95 °C), l 0.1 cm, enthalpy of folding at Tm), the “DHm (fitted value, OriginPro)” value was -10.1866 kcal/mol.
For `CSCC[C@H](NC(=O)[C@H](CC(=O)O)NC(=O)[C@H](Cc1ccccc1)NC(=O)[C@H](CCCNC(=N)N)NC(=O)[C@H](Cc1ccc(O)cc1)NC(=O)[C@H](CC(=O)O)NC(=O)[C@H](CCCNC(=N)N)NC(=O)[C@H](CCCNC(=N)N)NC(=O)[C@H](C)NC(=O)[C@@H](NC(=O)[C@H](Cc1c[nH]c2ccccc12)NC(=O)[C@@H](N)CCCNC(=N)N)C(C)C)C(=O)NCC(=O)N[C@@H](Cc1ccccc1)C(=O)N[C@@H](CC(=O)O)C(=O)N[C@@H](Cc1ccc(O)cc1)C(=O)N[C@@H](Cc1c[nH]c2ccccc12)C(=O)N[C@@H](Cc1c[nH]cn1)C(=O)N[C@@H](Cc1c[nH]c2ccccc12)C(=O)N[C@@H](CCC(=O)O)C(=O)O` [2e] (H-RWVARRDYRFDMGFDYWHWE-OH), on PD1:PDL1 interaction, the “LE (ligand efficiency)” value worked out at 0.06. Also, in data set [1], the ΔGF0 stood at 0.088 ± 0.02 kcal/mol, the Tm was determined as 3.96 oC, the “Hairpin %-fold 310K” value stood at 42 ± 1% and the “-TΔSF0” value worked out at 2.40 ± 0.02 kcal/mol. In data set [1], the ΔCpF0 is recorded as -107±5 cal.deg-1.mol-1, the ΔHF0 is -2.31 ± 0.03 kcal/mol, the ΔHm was -0.070 ± 0.6 kcal/mol and the VT-CD %-fold was 48% (B). The “VT-CD Tm (°C)” value in data set [1] turned out to be 4 °C. Besides, the “Hairpin %-fold 291K” value in data set [1] (291 K) is listed as 48 ± 1%. Besides, the “%fold 291K” value in data set [1] (fraction folded at 291 K from two-state fit of CD-melt) turned out to be 48%. In data set [1] (setting [2]), the “DHm (fitted value, OriginPro two-state fit of CD-melt)” value is -0.0700474 kcal/mol and the “Tm (fitted value, OriginPro two-state fit of CD-melt)” value was found to be 277.107 K.
Take `CSCC[C@H](NC(=O)CNC(=O)[C@H](CCC(=O)O)NC(=O)[C@H](CCCNC(=N)N)NC(=O)[C@H](C)NC(=O)[C@@H](NC(=O)[C@H](Cc1c[nH]c2ccccc12)NC(=O)[C@@H](N)CCCNC(=N)N)C(C)C)C(=O)N[C@@H](CC(N)=O)C(=O)N[C@H](C(=O)N[C@@H](CC(=O)O)C(=O)NCC(=O)N[C@@H](Cc1ccc(O)cc1)C(=O)N[C@@H](Cc1ccccc1)C(=O)N[C@@H](CC(=O)O)C(=O)N[C@@H](Cc1ccc(O)cc1)C(=O)N[C@@H](Cc1c[nH]c2ccccc12)C(=O)N[C@@H](Cc1c[nH]cn1)C(=O)N[C@@H](Cc1c[nH]c2ccccc12)C(=O)N[C@@H](CCC(=O)O)C(=O)O)[C@@H](C)O` [2o] (H-RWVAREGMNTDGYFDYWHWE-OH): at PD1:PDL1 interaction, the “LE (ligand efficiency)” value is on record as 0.07. In data set [1], the ΔGF0 is 0.47 ± 0.01 kcal/mol, the Tm is on record as 2.8 oC, the “Hairpin %-fold 310K” value is 23 ± 1% and the “-TΔSF0” value stood at 6.45 ± 0.02 kcal/mol. Also, in data set [1], the ΔCpF0 is on record as -2 ± 1 cal.deg-1.mol-1, the ΔHF0 was -5.97 ± 0.01 kcal/mol, the ΔHm was -5.93 ± 0.03 kcal/mol and the VT-CD %-fold is listed as 50% (B). The “VT-CD Tm (°C)” value in data set [1] was found to be 3 °C. In addition, the “Hairpin %-fold 291K” value in data set [1] (291 K) amounted to 36 ± 1%. Further, in data set [1] (fraction folded at 291 K from the two-state fit of the CD melt, l 0.1 cm), the “%fold 291K” value was determined as 36%. Besides, the “Tm 228 nm Glob.” value in data set [1] (global fit (shared maximum molar ellipticity), 228 nm) came to 14.6 oC. Further, the “Tm 202 nm Glob.” value in data set [1] (global fit, 202 nm) is -18.3 oC. Moreover, the “χF (291 K) 202 nm Glob.” value in data set [1] (global fit, 202 nm, 291 K) amounted to 19%. The “χF (291 K) 228 nm Glob.” value in data set [1] (global fit, 228 nm, 291 K) came to 47%. In data set [1] (individual fit, 202 nm, 291 K), the “χF (291 K) 202 nm Indiv.” value is reported as 38%. For the same compound, the “χF (291 K) 228 nm Indiv.” value in data set [1] (individual fit, 228 nm, 291 K) is on record as 36%. Moreover, the “Tm 228 nm Indiv.” value in data set [1] (individual fit, exciton band 228 nm) was found to be 2.8 oC. In data set [1] (individual fit, β-bulge band 202 nm), the “Tm 202 nm Indiv.” value was 7.9 oC. For the same compound, in data set [1] (l 0.1 cm), the “DHm (fitted value, results from OriginPro)” value is -5.92662 kcal/mol and the “Tm (fitted value, results from OriginPro)” value is 275.984 K.
The term EC50 denotes the concentration that produces a half-maximal response. Turning to `CSCC[C@@H]1NC(=O)[C@H](CC(=O)O)NC(=O)[C@H](Cc2ccccc2)NC(=O)[C@H](CCCNC(=N)N)NC(=O)[C@H](Cc2ccc(O)cc2)NC(=O)[C@H](CC(=O)O)NC(=O)[C@H](CCCNC(=N)N)NC(=O)[C@H](CCCNC(=N)N)NC(=O)[C@H](C)NC(=O)[C@@H](NC(=O)[C@H](Cc2c[nH]c3ccccc23)NC(=O)[C@@H](N)CCCNC(=N)N)CSSC[C@@H](C(=O)N[C@@H](Cc2c[nH]c3ccccc23)C(=O)N[C@@H](CCC(=O)O)C(=O)O)NC(=O)[C@H](Cc2c[nH]c3ccccc23)NC(=O)[C@H](Cc2ccc(O)cc2)NC(=O)[C@H](CC(=O)O)NC(=O)[C@H](Cc2ccccc2)NC(=O)CNC1=O` [2l] (H-RWCARRDYRFDMGFDYWCWE-OH; disulfide 3-18), the EC50 on PD1:PDL1 interaction (ELISA, mean of three independent experiments, read-out: EC50 Value) worked out at 584 nM. Also, the “LE (ligand efficiency)” value at PD1:PDL1 interaction is reported as 0.06. Also, in data set [1], the ΔGF0 is -0.77 ± 0.01 kcal/mol, the Tm was 66.0 oC, the “Hairpin %-fold 310K” value turned out to be 71 ± 1% and the “-TΔSF0” value turned out to be 4.69 ± 0.05 kcal/mol. For the same compound, in data set [1], the ΔCpF0 is recorded as -44 ± 2 cal.deg-1.mol-1, the ΔHF0 is -5.46 ± 0.05 kcal/mol and the ΔHm was -7.29 ± 0.04 kcal/mol. In addition, the “Hairpin %-fold 291K” value in data set [1] (291 K) is reported as 82 ± 1%. In data set [1] (l 0.1 cm), the “DHm (fitted value, results from OriginPro)” value is -7.28521 kcal/mol and the “Tm (fitted value, results from OriginPro)” value is recorded as 339.181 K.

The values are drawn from paper PMC11562385 (RSC Chemical Biology, 2024).
